What all share (assay type): biochemical
One assay deals with TYK2 (Homo sapiens, UniProt P29597). The assay can be described thus: TYK2 kinase inhibition (Table A1).
In assay [1] the target is T1, human JAK3 (a.a. 781-1124) (Homo sapiens, UniProt P52333).
T1 construct: JAK3 (a.a. 781-1124); His tag (N); made in house; host or cells: insect cells (baculovirus)
The assay can be described thus: In vitro JAK kinase assay (HTRF, phosphorylation of a biotinylated peptide), JAK3. The following applies: method AA1 (3 μM ATP) or AA2 (1000 μM ATP), not stated per value. The procedure, abridged:
(§1)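 Kinase activity was measured as phosphorylation of a biotinylated peptide, with ATP at 90 μM for JAK1, 30 μM for JAK2 and 3 μM for JAK3. Reactions ran 1 hr at room temperature, were stopped with EDTA plus SA-APC and Eu-Py20, and were read by HTRF after 40 minutes of antibody binding.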
A general note: In TR-FRET formats the signal depends on donor and acceptor labels being close together.

For assay [2], the target named is T2, human JAK2 (a.a. 828-1132) (Homo sapiens, UniProt O60674).
T2 construct: JAK2 (a.a. 828-1132); His tag (N); made in house; host or cells: insect cells (baculovirus)
T2 sequence (O60674 828-1132): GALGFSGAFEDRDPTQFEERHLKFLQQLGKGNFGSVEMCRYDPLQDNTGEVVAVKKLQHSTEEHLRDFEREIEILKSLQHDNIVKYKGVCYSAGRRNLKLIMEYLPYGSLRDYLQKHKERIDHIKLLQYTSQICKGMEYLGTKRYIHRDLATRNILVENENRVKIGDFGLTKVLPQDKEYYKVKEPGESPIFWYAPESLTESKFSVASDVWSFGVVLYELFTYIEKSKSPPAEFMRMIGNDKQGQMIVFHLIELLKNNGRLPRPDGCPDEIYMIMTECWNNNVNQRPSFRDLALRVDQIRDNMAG
The assay can be described thus: In vitro JAK kinase assay (HTRF, phosphorylation of a biotinylated peptide), JAK2. The following applies: method AA1 (30 μM ATP) or AA2 (1000 μM ATP), not stated per value. The procedure, abridged:
as §1

For assay [3], the target named is T3, Recombinant Human Anaplastic Lymphoma Kinase (Homo sapiens, UniProt Q9UM73).
T3 construct: purchased Invitrogen, Carlsbad, Calif
T3 sequence (Q9UM73 19-1620): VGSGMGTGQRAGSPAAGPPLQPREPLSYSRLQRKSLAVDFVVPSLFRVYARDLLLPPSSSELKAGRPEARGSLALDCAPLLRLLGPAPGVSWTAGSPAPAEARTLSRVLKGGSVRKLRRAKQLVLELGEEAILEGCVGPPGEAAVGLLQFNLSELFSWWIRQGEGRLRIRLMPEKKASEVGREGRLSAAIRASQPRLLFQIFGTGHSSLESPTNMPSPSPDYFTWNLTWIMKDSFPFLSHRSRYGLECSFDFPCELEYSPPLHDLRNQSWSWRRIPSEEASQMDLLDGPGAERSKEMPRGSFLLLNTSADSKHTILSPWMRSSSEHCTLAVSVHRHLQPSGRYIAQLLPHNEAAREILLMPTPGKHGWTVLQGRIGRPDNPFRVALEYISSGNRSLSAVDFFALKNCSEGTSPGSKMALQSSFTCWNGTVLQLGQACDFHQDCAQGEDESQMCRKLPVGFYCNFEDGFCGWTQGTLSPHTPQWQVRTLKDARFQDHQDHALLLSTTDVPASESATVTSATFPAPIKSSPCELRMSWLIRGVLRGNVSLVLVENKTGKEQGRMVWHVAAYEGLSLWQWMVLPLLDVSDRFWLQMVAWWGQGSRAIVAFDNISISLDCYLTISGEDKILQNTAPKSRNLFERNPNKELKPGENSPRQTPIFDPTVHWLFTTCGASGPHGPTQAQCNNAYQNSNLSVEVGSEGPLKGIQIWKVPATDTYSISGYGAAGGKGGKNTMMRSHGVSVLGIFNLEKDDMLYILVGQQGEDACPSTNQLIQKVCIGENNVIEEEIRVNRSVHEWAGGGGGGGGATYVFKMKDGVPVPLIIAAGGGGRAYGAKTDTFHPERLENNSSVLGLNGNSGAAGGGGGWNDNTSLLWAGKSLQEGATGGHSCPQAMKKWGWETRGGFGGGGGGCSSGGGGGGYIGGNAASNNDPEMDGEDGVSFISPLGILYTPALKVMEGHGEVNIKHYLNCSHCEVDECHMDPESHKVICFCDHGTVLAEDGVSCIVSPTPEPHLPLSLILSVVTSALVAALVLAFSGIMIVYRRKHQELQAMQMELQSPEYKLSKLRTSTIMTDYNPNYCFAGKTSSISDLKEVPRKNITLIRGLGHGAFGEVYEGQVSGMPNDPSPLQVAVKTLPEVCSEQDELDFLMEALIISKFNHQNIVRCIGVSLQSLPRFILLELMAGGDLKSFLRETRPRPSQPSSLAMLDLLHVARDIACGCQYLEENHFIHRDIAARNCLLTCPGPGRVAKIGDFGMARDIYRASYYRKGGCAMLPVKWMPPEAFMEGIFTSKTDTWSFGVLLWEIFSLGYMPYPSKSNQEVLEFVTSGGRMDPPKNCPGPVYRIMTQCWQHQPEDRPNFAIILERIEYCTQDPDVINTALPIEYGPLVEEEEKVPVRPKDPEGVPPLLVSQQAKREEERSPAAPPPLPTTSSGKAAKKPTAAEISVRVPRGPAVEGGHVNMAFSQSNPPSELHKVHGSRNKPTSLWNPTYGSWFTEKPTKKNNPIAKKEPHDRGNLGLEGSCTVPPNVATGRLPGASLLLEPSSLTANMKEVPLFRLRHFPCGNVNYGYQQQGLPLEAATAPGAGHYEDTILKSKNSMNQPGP
The assay can be described thus: ALK HTRF kinase assay. The following applies: compound at 500 nM or 1 mM; 90 μM ATP. The procedure, abridged:
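Biotinylated peptide substrate, recombinant human ALK; detection via europium-chelate antibody to phosphotyrosine paired with streptavidin-APC. Potency expressed as IC50 from four-parameter curve fitting.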

Assay [4] deals with T4, human JAK1 (a.a. 837-1142) (Homo sapiens, UniProt P23458).
T4 construct: human JAK1 (a.a. 837-1142); His tag (N); made in house; host or cells: insect cells (baculovirus)
T4 sequence (P23458 849-1154): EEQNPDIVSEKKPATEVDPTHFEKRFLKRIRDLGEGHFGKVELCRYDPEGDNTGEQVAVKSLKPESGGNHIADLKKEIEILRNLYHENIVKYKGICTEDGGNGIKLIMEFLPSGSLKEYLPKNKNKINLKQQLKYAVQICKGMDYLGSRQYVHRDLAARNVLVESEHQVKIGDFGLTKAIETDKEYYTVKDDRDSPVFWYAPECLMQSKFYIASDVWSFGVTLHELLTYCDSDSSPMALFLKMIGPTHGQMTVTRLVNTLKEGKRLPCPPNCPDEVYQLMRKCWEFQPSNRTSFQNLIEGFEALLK
Description: In vitro JAK kinase assay (HTRF, phosphorylation of a biotinylated peptide), JAK1. The following applies: method AA1 (90 μM ATP) or AA2 (1000 μM ATP), not stated per value; read-out: JAK1 IC50. Summed up:
as §1

Consider 14 compounds from patent US8871753B2, “Macrocyclic compounds and their use as kinase inhibitors” (Incyte Corporation, priority 2008, dated 2014).

Counter-ions that a name gives are not always drawn.

T1 sequence (P52333 781-1124): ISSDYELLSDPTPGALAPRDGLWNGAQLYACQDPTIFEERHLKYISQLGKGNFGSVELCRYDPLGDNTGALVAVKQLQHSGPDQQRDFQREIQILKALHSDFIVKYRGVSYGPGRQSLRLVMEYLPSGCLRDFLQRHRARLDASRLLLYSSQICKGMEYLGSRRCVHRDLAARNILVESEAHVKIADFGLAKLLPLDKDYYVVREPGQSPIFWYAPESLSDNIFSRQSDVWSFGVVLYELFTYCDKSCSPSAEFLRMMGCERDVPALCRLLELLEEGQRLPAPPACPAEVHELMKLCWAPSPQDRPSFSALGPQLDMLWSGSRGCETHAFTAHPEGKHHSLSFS
Sequence of TYK2 (P29597 whole entry): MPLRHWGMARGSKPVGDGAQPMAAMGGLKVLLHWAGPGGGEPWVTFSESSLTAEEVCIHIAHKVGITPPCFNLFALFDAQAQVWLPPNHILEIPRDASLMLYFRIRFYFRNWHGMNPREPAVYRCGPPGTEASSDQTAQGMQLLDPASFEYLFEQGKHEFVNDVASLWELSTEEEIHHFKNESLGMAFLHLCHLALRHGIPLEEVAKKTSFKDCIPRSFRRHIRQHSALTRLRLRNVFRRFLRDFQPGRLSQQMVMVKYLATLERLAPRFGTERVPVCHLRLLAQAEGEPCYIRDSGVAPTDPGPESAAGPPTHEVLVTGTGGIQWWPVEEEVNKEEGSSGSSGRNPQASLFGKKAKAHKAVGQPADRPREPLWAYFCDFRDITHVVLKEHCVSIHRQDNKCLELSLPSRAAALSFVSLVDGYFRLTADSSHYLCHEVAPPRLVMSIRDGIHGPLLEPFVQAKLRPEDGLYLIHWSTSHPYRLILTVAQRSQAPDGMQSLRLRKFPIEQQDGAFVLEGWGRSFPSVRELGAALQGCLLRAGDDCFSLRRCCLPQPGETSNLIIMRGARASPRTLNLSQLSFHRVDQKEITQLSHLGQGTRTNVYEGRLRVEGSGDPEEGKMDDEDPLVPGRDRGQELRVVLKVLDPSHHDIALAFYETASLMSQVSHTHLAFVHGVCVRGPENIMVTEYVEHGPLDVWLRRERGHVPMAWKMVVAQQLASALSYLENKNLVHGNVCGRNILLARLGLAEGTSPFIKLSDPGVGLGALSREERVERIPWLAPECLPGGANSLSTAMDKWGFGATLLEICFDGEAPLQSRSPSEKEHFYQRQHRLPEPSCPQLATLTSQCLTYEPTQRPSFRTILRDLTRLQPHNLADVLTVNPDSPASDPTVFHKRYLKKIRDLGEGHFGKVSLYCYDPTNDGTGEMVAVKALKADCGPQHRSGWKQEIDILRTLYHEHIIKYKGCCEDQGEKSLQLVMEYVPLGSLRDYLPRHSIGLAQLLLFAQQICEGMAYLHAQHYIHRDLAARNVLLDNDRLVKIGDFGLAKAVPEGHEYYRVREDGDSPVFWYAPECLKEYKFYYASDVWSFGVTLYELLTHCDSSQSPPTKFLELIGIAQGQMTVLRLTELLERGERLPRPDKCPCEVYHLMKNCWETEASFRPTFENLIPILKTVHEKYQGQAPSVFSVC

In the case of `O=C(Nc1ccccc1)N[C@@H](CO)C(=O)Nc1ccc2cc1CCc1cccc(c1)Nc1ncc(Cl)c(n1)N2` [Example A68, (2S)-2-[(Anilinocarbonyl)amino]-N-[6-chloro-2,4,8,22-tetraazatetracyclo[14.3.1.1(3,7).1(9,13)]docosa-1(20),3(22),4,6,9(21),10,12,16,18-nonaen-12-yl]-3-hydroxypropanamide trifluoroacetate], the IC50 against TYK2 came out at 11 nM; in assay [1] it was 4.1 nM; in assay [2] it was 2.8 nM; in assay [4], 2 nM. The “ALK % of inhibition at a concentration of 500 nM or 1 mM” value (from here on “ALK % of inhibition”) in assay [3] amounted to 46%.
As for `O=C(Nc1ccc2cc1CCc1cccc(c1)Nc1ncc(Cl)c(n1)N2)[C@@H]1CCCN1C(=O)Nc1ccccc1` [Example A69, (2S)—N(2)-[6-Chloro-2,4,8,22-tetraazatetracyclo[14.3.1.1(3,7).1(9,13)]docosa-1(20),3(22),4,6,9(21),10,12,16,18-nonaen-12-yl]-N(1)-phenylpyrrolidine-1,2-dicarboxamide trifluoroacetate], the IC50 against TYK2 was 39 nM; in assay [1], 16 nM; in assay [2], 7.7 nM; in assay [4] it was 41 nM. In addition, in assay [3], the “ALK % of inhibition” value came out at 27%.
As to `CC(C)(C)OC(=O)N1CCC(CC(=O)Nc2ccc3cc2CCc2cncc(c2)Nc2ncc(Cl)c(n2)N3)CC1` [Example A70, tert-Butyl 4-(2-{[6-chloro-2,4,8,18,22-pentaazatetracyclo[14.3.1.1(3,7).1(9,13)]docosa-1(20),3(22),4,6,9(21),10,12,16,18-nonaen-12-yl]amino}-2-oxoethyl)piperidine-1-carboxylate bis(trifluoroacetate)], the IC50 against TYK2 came to 110 nM; in assay [1], 195 nM; in assay [2] it was 57 nM; in assay [4], 20 nM. Moreover, in assay [3], the “ALK % of inhibition” value is listed as 18%.
For `O=C(CC1CCNCC1)Nc1ccc2cc1CCc1cncc(c1)Nc1ncc(Cl)c(n1)N2` [Example A71, N-[6-Chloro-2,4,8,18,22-pentaazatetracyclo[14.3.1.1(3,7).1(9,13)]docosa-1(20),3(22),4,6,9(21),10,12,16,18-nonaen-12-yl]-2-piperidin-4-ylacetamide tris(trifluoroacetate)], in that order: 57 nM, 112 nM, 69 nM, 19 nM and 26%.
On to `NS(=O)(=O)N1CCC(C(=O)Nc2ccc3cc2CCc2cccc(c2)Nc2ncc(Cl)c(n2)N3)CC1` [Example A72, 1-(Aminosulfonyl)-N-[6-chloro-2,4,8,22-tetraazatetracyclo[14.3.1.1(3,7).1(9,13)]docosa-1(20),3(22),4,6,9(21),10,12,16,18-nonaen-12-yl]piperidine-4-carboxamide trifluoroacetate], for which the IC50 against TYK2 turned out to be 16 nM; in assay [1], 10 nM; in assay [2] it was 3.7 nM; in assay [4], 18 nM. Also, the “ALK % of inhibition” value in assay [3] was 34%.
With `NS(=O)(=O)N1CCCC(C(=O)Nc2ccc3cc2CCc2cccc(c2)Nc2ncc(Cl)c(n2)N3)C1` (stereo not shown) [Example A73, 1-(Aminosulfonyl)-N-[6-chloro-2,4,8,22-tetraazatetracyclo[14.3.1.1(3,7).1(9,13)]docosa-1(20),3(22),4,6,9(21),10,12,16,18-nonaen-12-yl]piperidine-3-carboxamide trifluoroacetate], the IC50 worked out at 8 nM against TYK2, 3 nM in assay [1], 0.7 nM in assay [2] and 10 nM in assay [4]. Also, in assay [3], the “ALK % of inhibition” value was found to be 49%.
The matching figures for `NS(=O)(=O)N1CC[C@@H](C(=O)Nc2ccc3cc2CCc2cccc(c2)Nc2ncc(Cl)c(n2)N3)C1` [Example A74, (3R)-1-(Aminosulfonyl)-N-[6-chloro-2,4,8,22-tetraazatetracyclo[14.3.1.1(3,7).1(9,13)]docosa-1(20),3(22),4,6,9(21),10,12,16,18-nonaen-12-yl]pyrrolidine-3-carboxamide trifluoroacetate]: 17 nM, 3.3 nM, 3 nM, 6 nM and 48%.
In the case of `NS(=O)(=O)N1CCC(CC(=O)Nc2ccc3cc2CCc2cccc(c2)Nc2ncc(Cl)c(n2)N3)CC1` [Example A75, 2-[1-(Aminosulfonyl)piperidin-4-yl]-N-[6-chloro-2,4,8,22-tetraazatetracyclo[14.3.1.1(3,7).1(9,13)]docosa-1(20),3(22),4,6,9(21),10,12,16,18-nonaen-12-yl]acetamide trifluoroacetate], the IC50 was found to be 0.3 nM on TYK2, 3.2 nM in assay [1], 0.2 nM in assay [2] and 0.2 nM in assay [4]. In addition, in assay [3], the “ALK % of inhibition” value is listed as 51%.
On to `CC(=O)N1CCC(CC(=O)Nc2ccc3cc2CCc2cncc(c2)Nc2ncc(Cl)c(n2)N3)CC1` [Example A76, 2-(1-Acetylpiperidin-4-yl)-N-[6-chloro-2,4,8,18,22-pentaazatetracyclo[14.3.1.1(3,7).1(9,13)]docosa-1(20),3(22),4,6,9(21),10,12,16,18-nonaen-12-yl]acetamide bis(trifluoroacetate)], for which the IC50 on TYK2 worked out at 3.9 nM; in assay [1], 124 nM; in assay [2], 4.1 nM; in assay [4] it was 2 nM. In assay [3], the “ALK % of inhibition” value came out at 21%.
For `O=C(CC1CCN(C(=O)Nc2ccccc2)CC1)Nc1ccc2cc1CCc1cncc(c1)Nc1ncc(Cl)c(n1)N2` [Example A77, 4-(2-{[6-Chloro-2,4,8,18,22-pentaazatetracyclo[14.3.1.1(3,7).1(9,13)]docosa-1(20),3(22),4,6,9(21),10,12,16,18-nonaen-12-yl]amino}-2-oxoethyl)-N-phenylpiperidine-1-carboxamide bis(trifluoroacetate)], in that order: 4 nM, 35 nM, 0.7 nM, 0.6 nM and 35%.
For `NS(=O)(=O)N1CCC(CC(=O)Nc2ccc3cc2CCc2cncc(c2)Nc2ncc(Cl)c(n2)N3)CC1` [Example A78, 2-[1-(Aminosulfonyl)piperidin-4-yl]-N-[6-chloro-2,4,8,18,22pentaazatetracyclo[14.3.1.1(3,7).1(9,13)]docosa-1(20),3(22),4,6,9(21),10,12,16,18-nonaen-12-yl]acetamide bis(trifluoroacetate)], in that order: 0.3 nM, 12 nM, 0.3 nM, 0.4 nM and 39%.
For `CS(=O)(=O)N1CCC(CC(=O)Nc2ccc3cc2CCc2cncc(c2)Nc2ncc(Cl)c(n2)N3)CC1` [Example A79, N-[6-Chloro-2,4,8,18,22-pentaazatetracyclo[14.3.1.1(3,7).1(9,13)]docosa-1(20),3(22),4,6,9(21),10,12,16,18-nonaen-12-yl]-2-[1-(methylsulfonyl)piperidin-4-yl]acetamide bis(trifluoroacetate)], in that order: 3.6 nM, 46 nM, 1.9 nM, 0.5 nM and 33%.
With `CN(C)C(=O)N1CCC(CC(=O)Nc2ccc3cc2CCc2cccc(c2)Nc2ncc(Cl)c(n2)N3)CC1` [Example A80, 4-(2-{[6-Chloro-2,4,8,22-tetraazatetracyclo[14.3.1.1(3,7).1(9,13)]docosa-1(20),3(22),4,6,9(21),10,12,16,18-nonaen-12-yl]amino}-2-oxoethyl)-N,N-dimethylpiperidine-1-carboxamide trifluoroacetate], the half-inhibitory concentration (IC50) against TYK2 was 5.3 nM; in assay [1], 62 nM; in assay [2], 4.4 nM; in assay [4], 8.1 nM. Besides, the “ALK % of inhibition” value in assay [3] was found to be 21%.
For `CN(C)S(=O)(=O)N1CCC(CC(=O)Nc2ccc3cc2CCc2cccc(c2)Nc2ncc(Cl)c(n2)N3)CC1` [Example A81, N-[6-Chloro-2,4,8,22-tetraazatetracyclo[14.3.1.1(3,7).1(9,13)]docosa-1(20),3(22),4,6,9(21),10,12,16,18-nonaen-12-yl]-2-{1-[(dimethylamino)sulfonyl]piperidin-4-yl}acetamide trifluoroacetate], in that order: 4.3 nM, 24 nM, 1.6 nM, 4.7 nM and 29%.

The term IC50 denotes the concentration needed to halve the response being measured.
